From patent publication US6423692B2 (priority 1997, dated 2002)

Legend:
[1] = test system: 9L-Neo cells; test: Incorporation of ara-C into DNA; format: cell-based, rat; conditions: one million cells
Protocol: (§1) Three and 6 h later, labeled cells were harvested, and digested by the addition of 2.5 mg proteinase-K (Boehringer-Mannheim, Indianapolis, Ind.) in 2 ml of 10 mM Tris (pH 7.4), 1 mM EDTA, and 0.5% SDS. Subsequent purification was accomplished by phenol extraction. The nucleic acids were precipitated, centrifuged, treated with RNase A and then assayed for radioactivity [Major, P. D., et al., Proc. Natl. Acad. Sci. USA 78:3235-3239 (1981)].

[2] = test system: 9L-WT cells; test: Incorporation of ara-C into DNA; format: cell-based, rat; conditions: one million cells
Protocol: as §1

[3] = test system: 9L-Neo cells; test: cells; format: cell-based; conditions: Rattus norvegicus, 120 h, read-out: Cytotoxicity, cell viability
Protocol: Surviving cells were then counted 3 days later. Data represent means+s.e.m. […] Data represent the means +s.e.m. (bars) of five separate experiments.
In order to determine whether the dCK/ara-C-mediated bystander effect is dependent on direct cell-to-cell contact, 9L-Neo cells were plated on the bottom of a microliter transwell either directly with 9L-dCK cells or separated from the 9L-dCK cells by a 3-μm porous membrane. Significant cytotoxicity (38%+2% of control) was also seen in the 9L-Neo cells that were directly mixed in the bottom compartment with the 9L-dCK cells, compared with minimal cytotoxicity (81% of control) when the 9L-Neo cells were separated from the 9L-dCK cells by the membrane (FIG. 3b). The difference in cytotoxicity between cell-to-cell and membrane separated cell killing was statistically significant; P<0.01.

[4] = test system: 9L-Neo tumors; test: Growth of intradermal tumors in syngeneic rat; format: in vivo, Fischer 344 rats
Protocol: Implantation of intradermal tumors. […] Tumor volume was calculated by multiplying the values of three perpendicular diameters. Statistical analysis was performed using an unpaired, two-tailed, Student's t-test.
Treatment of animals. […] Oncol.

[5] = test system: 9L cells transduced by Ad.CMVdCK; test: Cytotoxic assay after adenoviral transduction; format: cell-based; conditions: Rattus norvegicus, 24 h
Protocol: (§2) FIGS. 6A and 6B show in vitro sensitivity to ara-C following transduction with dCK-expressing or control virus. 9L cells (2×10^3) were infected as follows: (FIG. 6A) Ad.CMVβgal at MOI 0 (●), 50 (▪), 500 ( ? ); and (FIG. 6B) Ad.CMVdCK at MOI 0 (◯), 50 (□) and 500 ( ? ). […] Cytotoxicity was determined by staining with methylene blue. […] The difference in cell killing was highly statistically significant for cells treated with Ad.CMVdCK at an MOI of 500 (P<0.00 1).
(§3) Cytotoxic assays were performed to determine whether 9L transduction by Ad.CMVdCK confers ara-C sensitivity. Forty-eight hours after transduction, 9L cells were exposed to various concentrations of ara-C for 24 hours. Forty-eight hours later, cells were assayed for cytotoxic effects.

[6] = test system: 9L cells transduced by Ad.CMVβgal; test: Cytotoxic assay after adenoviral transduction; format: cell-based; conditions: Rattus norvegicus; Ad.CMVβgal at different MOIs, 48 h after transduction, 24 hours ara-C
Protocol: as §2, §3

[7] = test system: intracerebral 9L glioma; format: in vivo, Fischer 344 rats
Protocol: 9L-Neo or 9L-dCK cells (2×10^4) were injected into right caudate nucleus of the brain. Four days later, viral vehicle or 2×10^8 PFU of recombinant adenoviruses were injected into the tumors stereotaxically using the same route of previous 9L inoculation (V).
Four days later, viral vehicle, or 2×10^8 PFU (plaque-forming units) of either the Ad.CMVβgal or Ad.CMVdCK vectors were stereotactically injected into the tumors.
(§4) Implantation of intracerebral tumors. 9L-Neo and 9L-dCK cells were stereotaxically implanted into the right caudate nucleus of Fischer 344 rats using a modification of the method of Kobayashi [Kobayashi, N. et al. J. Neurosurg. […] In brief, male Fischer 344 rats (150-175 g) were anesthetized and placed in a small animal stereotaxic frame (Kopf Instruments). Tumor cells (2×10^4/10 μl) were injected with a 701 Hamilton syringe over 30 s to a depth of 4.5 mm, 1.3 mm posterior and 4 mm to the right of the bregma. […] Statistical significance of survival between different groups was assessed using log rank analysis of Kaplan Meier survival curves.

[8] = test system: 9L-Neo tumors; test: Survival of rats with intracerebral tumors; conditions: intracerebral 9L-Neo tumors, ara-C 200 mg/kg; P<0.02
Protocol: 9L-Neo or 9L-dCK cells (2×10^4) were stereotaxically injected into right caudate nucleus of the brain.
In a second experiment, intracerebral tumors were established and rat survival was measured. Secondary to restricted intracranial volume, the survival of rats in this model represents a very reproducible parameter for determining the growth of transplanted tumors or tumor cell lines in vivo.
as §4

## Nc1ccn([C@@H]2O[C@H](CO)[C@@H](O)[C@@H]2O)c(=O)n1 [ara-C, 1-β-D-arabinofuranosyl-cytosine]
[1]; 3 hours, 10^−7 M [3H]ara-C
  Incorporation of ara-C into DNA: 0.502 ± 0.198 pmol
[1]; 3 hours, 10^−8 M [3H]ara-C
  Incorporation of ara-C into DNA: 0.067 ± 0.007 pmol
[1]; 6 hours, 10^−7 M [3H]ara-C
  Incorporation of ara-C into DNA: 1.926 ± 0.259 pmol
[1]; 6 hours, 10^−8 M [3H]ara-C
  Incorporation of ara-C into DNA: 0.403 ± 0.101 pmol
[2]; 3 hours, 10^−7 M [3H]ara-C
  Incorporation of ara-C into DNA: 0.359 ± 0.061 pmol
[2]; 3 hours, 10^−8 M [3H]ara-C
  Incorporation of ara-C into DNA: 0.054 ± 0.001 pmol
[2]; 6 hours, 10^−7 M [3H]ara-C
  Incorporation of ara-C into DNA: 1.905 ± 0.652 pmol
[2]; 6 hours, 10^−8 M [3H]ara-C
  Incorporation of ara-C into DNA: 0.305 ± 0.094 pmol
[3]
  viability at 0.2 µM: 38%
[4]; intradermal 9L-Neo tumors, ara-C 200 mg/kg s.c. every 8 h for 2 days, two courses
  Tumor size: 9556+2272 mm^3
[4]; intradermal, ara-C 200 mg/kg
  Growth of 9L-Neo tumors, ara-C versus PBS: no significant difference in the growth
[5]; Ad.CMVdCK MOI 0, 24 hours ara-C
  IC50: 300 nM
[5]; Ad.CMVdCK MOI 50, 24 hours ara-C
  IC50: 190 nM
[5]; Ad.CMVdCK MOI 500, 24 hours ara-C, P<0.001
  IC50: 80 nM
[6]
  IC50: ~300 nM
[7]; 2×10^8 PFU Ad.CMVdCK intratumoral, versus viral vehicle or Ad.CMVβgal and ara-C, P<0.0005
  Survival of animals treated with Ad.CMVdCK and ara-C: survived much longer
[7]; versus PBS-treated animals, P<0.02
  Survival of vehicle and Ad.CMVβgal injected animals treated with ara-C: longer than that seen in the PBS-treated animals
[8]
  Prolongation of median survival compared with PBS-treated animals: 8 days
